# Measurements: patent US20210213176A1, “CHEMICAL VAPOR DEPOSITION OF POLYMER COATINGS FOR CONTROLLED DRUG RELEASE, ASSEMBLIES CONTAINING SAME, AND METHODS OF PRODUCTION AND USE THEREOF” (The Board of Regents for the Oklahoma Agricultural and …, priority 2020, published 2021)
# Columns and labels:
# [1] = system: human smooth muscle cells; conditions: 2.5 μM atorvastatin in medium (Dubuis et al., 2013); cited from earlier work
# smooth muscle cells = conditions: atorvastatin concentration as low as 0.1 μM (Petersen et al., 2013; Baetta et al., 1997); cited from earlier work
# [2] = system: Human coronary artery smooth muscle cells (HCASMC); experiment: MTT cell metabolism assay on nanocoated devices; conditions: PDE31 coated, dose densities up to 100 μg/cm^2
smiles,measurement,setting,value
"CC(C)c1c(C(=O)Nc2ccccc2)c(-c2ccccc2)c(-c2ccc(F)cc2)n1CC[C@@H](O)C[C@@H](O)CC(=O)[O-].CC(C)c1c(C(=O)Nc2ccccc2)c(-c2ccccc2)c(-c2ccc(F)cc2)n1CC[C@@H](O)C[C@@H](O)CC(=O)[O-].[Ca+2] [atorvastatin, Atorvastatin calcium]",viability of human smooth muscle cells,[1],does not suppress the viability
same,growth of smooth muscle cells,smooth muscle cells,effective in suppressing the growth
same,MTT activity of HCASMC with atorvastatin release,[2],no significant difference
